Experimental data: patent US7772177B2, “BIR domain binding compounds” (Aegera Therapeutics, Inc., priority 2005, dated 2010)
Where a name gives a salt, the structure may show the parent alone.

Experiments:
[1] = system: selected cell lines in hollow fibers; test: Hollow fiber in vivo model; set-up: species or system Nu/Nu CD-1 male mice; settings: Method 37, sub-cutaneous route
Experimental: At day 1, selected cell lines were cultured and the fiber filled at a cell density of about 40,000 cells/fiber. At the day of operation (day 4), three fibers are implanted sub-cutaneous into 28-35 Nu/Nu CD-1 male mice. On day 5, mice start to receive daily injection via sub-cutaneous route of control vehicle or vehicle containing the selected compound at the appropriate concentration and/or injection of cytotoxic agent via intra-peritoneal route. Upon 7 days of non-consecutive treatments, the animals are sacrificed, each fiber is removed and the metabolic viability of the remaining cells determined by MTT assay. Efficacy of the compound is define as the difference between the vehicle-treated animal and the animal treated with the compound alone or the compound given in combination of the cytotoxic agent

H460 cells = test: Combination anti-cancer therapy in vivo with Taxotere, H460 tumors; set-up: species or system Female CD-1 nude mice; settings: cumulative dose of 20 mg/kg, sc per day
Experimental: Taxotere (30 mg/kg, ip)/Saline (n=9)
Taxotere (30 mg/kg, ip)/compound 56 (2×5 mg/kg, sc) (n=10)
Female CD-1 nude mice (approximately 20-25 g) were subcutaneously injected with 1×10^6 H460 cells in the right flank. Animals were balanced into groups based on tumor size and drug therapy began when tumors were ˜30-50 mm^3. Animals that had no tumor or that were deemed outliers because of excessive tumor size at this time were removed from the study. The remaining animals received Taxotere (or equivalent volume of vehicle) at 30 mg/kg, ip 2 times, one week apart. The compound was given two times per day (at 10 mg/kg, sc, approximately 6 hrs apart), starting at the time of Taxotere, and continuing daily for the duration of the experiment. If dehydration occurred, animals received sc fluids (0.5 ml). Tumor size was measured three times per week. Health assessments were performed at the time of the compound's delivery.

GST-XIAP BIR3RING = target: T1, GST-XIAP BIR3RING (Homo sapiens, UniProt P98170); test: Fluorescence polarization-based competition assay, XIAP Bir3-RING; format: binding
T1 construct: made in house; host or cells: E. coli DH5-alpha
T1 sequence (P98170 246-497): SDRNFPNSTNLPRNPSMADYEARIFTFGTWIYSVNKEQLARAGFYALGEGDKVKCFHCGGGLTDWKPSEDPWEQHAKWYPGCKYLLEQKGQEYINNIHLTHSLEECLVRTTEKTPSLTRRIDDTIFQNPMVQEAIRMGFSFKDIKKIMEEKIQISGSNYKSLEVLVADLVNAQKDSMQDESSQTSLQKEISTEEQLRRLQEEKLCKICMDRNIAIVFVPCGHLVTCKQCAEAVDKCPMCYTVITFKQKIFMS
Outline: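 Competitive fluorescence polarization with GST-XIAP BIR3-RING (aa 246-497, E. coli-expressed) and a fluorescein-labelled peptide probe in 50 mM MES pH 6.5 with BSA; protein fixed at titrated linear-signal level. Compound autofluorescence and quenching checked; IC50 from 10-point dilutions, Ki derived by Nikolovska-Coleska equation.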

GST-HIAP2 (cIAP-1) BIR 3 = target: T2, GST-HIAP2 (cIAP-1) BIR 3 (Homo sapiens, UniProt Q13490); test: Fluorescence polarization-based competition assay, cIAP-1 Bir3; format: binding
T2 construct: made in house; host or cells: E. coli DH5-alpha
T2 sequence (Q13490 251-363): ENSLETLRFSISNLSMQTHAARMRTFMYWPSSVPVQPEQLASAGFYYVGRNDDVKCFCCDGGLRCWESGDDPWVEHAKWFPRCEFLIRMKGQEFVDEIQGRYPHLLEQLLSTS
Outline: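 GST-cIAP-1 BIR3 (aa 251–363, E. coli) at a titrated fixed level, combined with fluorescein-labelled peptide probe and a 10-point compound series in 50 mM MES pH 6.5 with BSA. Polarization read at ex 485/em 535 nm; IC50 fitted, and Ki derived using the Nikolovska-Coleska equation.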

GST-HIAP1(cIAP-2) BIR 3 = target: T3, GST-HIAP1(cIAP-2) BIR 3 (Homo sapiens, UniProt Q13489); test: Fluorescence polarization-based competition assay, cIAP-2 Bir3; format: binding
T3 construct: made in house; host or cells: E. coli DH5-alpha
T3 sequence (Q13489 236-349): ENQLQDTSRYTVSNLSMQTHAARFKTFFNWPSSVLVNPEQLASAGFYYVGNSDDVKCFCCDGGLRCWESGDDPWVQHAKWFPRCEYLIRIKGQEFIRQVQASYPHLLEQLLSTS
Outline: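 GST-cIAP-2 BIR3 (aa 236-349, E. coli-expressed) at a pre-titrated fixed level, with fluorescein-labelled AVPF-peptide probe and 10-point compound dilutions in 50 mM MES pH 6.5 with BSA. Fluorescence polarization read at Ex 485/Em 535 nm; IC50 from curve fit, Ki derived per Nikolovska-Coleska equation.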

[2] = target: T4, XIAP Bir3-RING (GST-BIR 3RING) (Homo sapiens, UniProt P98170); test: Caspase de-repression assay using cellular extracts (apoptosome), XIAP Bir3-RING; format: biochemical; settings: 293 cell S100 extract
T4 construct: made in house; host or cells: E. coli DH5-alpha
T4 sequence (P98170 246-497): as the sequence (P98170 246-497) above
Experimental: (§1) 100 ug of 293 cell S100 extract and 0.25 uM-2 uM of GST-Xiap fusion protein (GST-BIR 3RING, GST-linker BIR2 BIR3RING) were co-incubated with serial dilutions of compound (0.02 uM-40 uM). Extracts were activated by adding 1 mM dATP, 0.1 mM ALLN, 133 ug Cytochrome C (final concentrations), and incubating at 37° C. for 25 minutes. All reactions and dilutions used S100 buffer (50 mM Pipes pH 7.0, 50 mM KCl, 0.5 mM EGTA pH 8.0, 2 mM MgCl2 supplemented with 1/1000 dilutions of 2 mg/ml Cytochalisin B, 2, mg/ml Chymotstatin, Leupeptin, Pepstatin, Antipain, 0.1M PMSF, 1M DTT). Final reaction volume was 30 ul. Caspase-3 activity was measured by overlaying 30 ul of a 0.4 mM DEVD-AMC solution. AMC cleavage was measured in a TECAN spectrophotometer at 360 nm excitation and 444 nm emission, on a kinetic cycle of 1 hour with readings taken every 5 minutes. Caspase activity was calculated as Vo of AMC fluorescence/sec. Caspase de-repression by our compounds were compared to fully activated extract and activated extract repressed by the presence of XIAP fusion protein.
(§2) Results: Compounds were also tested in the apoptosome assay and the linker-BIR2/caspase-3 inhibition assay and found to have IC50s in the following ranges: A: >10 μM; B: <10 μM; C: <1 μM, as shown in Table 7.

[3] = target: T5, XIAP Bir2-Bir3-RING (GST-linker BIR2 BIR3RING) (Homo sapiens, UniProt P98170); test: Caspase de-repression assay using cellular extracts (apoptosome), XIAP Bir2-Bir3-RING; format: biochemical; settings: 293 cell S100 extract
T5 construct: made in house; host or cells: E. coli DH5-alpha
T5 sequence (P98170 93-497): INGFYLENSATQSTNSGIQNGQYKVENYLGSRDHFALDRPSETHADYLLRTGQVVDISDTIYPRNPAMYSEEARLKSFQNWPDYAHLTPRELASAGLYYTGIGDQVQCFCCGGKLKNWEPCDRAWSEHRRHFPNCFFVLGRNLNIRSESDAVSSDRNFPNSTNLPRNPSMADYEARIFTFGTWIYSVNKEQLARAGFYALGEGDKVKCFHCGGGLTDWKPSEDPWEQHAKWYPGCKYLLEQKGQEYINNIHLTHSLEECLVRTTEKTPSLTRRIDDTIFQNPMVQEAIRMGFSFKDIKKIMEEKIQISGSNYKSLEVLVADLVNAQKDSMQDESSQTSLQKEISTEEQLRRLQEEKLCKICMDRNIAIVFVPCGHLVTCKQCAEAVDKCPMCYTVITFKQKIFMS
Experimental: as §1, §2

[4] = target: T6, caspase-3 inhibited by linker BIR2-BIR3-RING of XIAP (Homo sapiens, UniProt P98170); test: Caspase-3 linker-BIR2-BIR3-RING derepression assay; format: biochemical
T6 construct: made in house; host or cells: E. coli DH5-alpha (GST-XIAP); E. coli AD494 (His-caspase-3)
T6 sequence (P98170 93-497): as above
Experimental: In order to determine the relative activity of the selected compound against BIR2, an in vitro assay was used where caspase-3 was inhibited by linker-BIR2 or linker BIR2-BIR3-RING of XIAP. Briefly, 1.5 ul of the enzyme, 0.25 uM to 2 uM of GST-Xiap fusion protein (GST-linker BIR2, GST-linker BIR2BIR3RING) were co-incubated with serial dilutions of compound (80 uM-0.04 uM). Caspase 3 activity was measured by overlaying 25 ul of a 0.4 mM DEVD-AMC solution. Final reaction volume was 100 ul. All dilutions were performed in caspase buffer (50 mM Hepes pH 7.4, 100 mM NaCl, 10% sucrose, 1 mM EDTA, 10 mM DTT, 0.1% CHAPS (Stennicke, H. R., and Salvesen, G. S. (1997). Biochemical characteristics of caspase-3, -6, -7, and -8. J. Biol. Chem. 272, 25719-25723)).
The fluorescent AMC released from the caspase-3 hydrolysis of the substrate was measured in a TECAN spectrophotometer at 360 nm excitation and 444 nm emission, on a kinetic cycle of 30 minutes with readings taken every 2 minutes. Caspase activity was calculated as Vo of AMC fluorescence/sec. Caspase de-repression by our compounds were compared to caspase-3 alone and caspase 3 repressed by the presence of XIAP fusion protein.
as §2

MDA-MB-231 cells = test: Survival assay (MTS) on MDA-MB-231 cells; format: cell-based; settings: Homo sapiens, 72 hours, read-out: EC50 MDA-MB-231 breast derived cell line
Experimental: MDA-MD-231 (breast) and H460 (lung) cancer cells were cultured in RPMI1640 media supplemented with 10% FBS and 100 units/mL of Penicillin and Steptomycin.
(§3) Survival assays were routinely done on MDA-MB-231 and H460 cells. Cells were seeded in 96 well plates at a respective density of 5000 and 2000 cells per well and incubated at 37° C. in presence of 5% CO2 for 24 hours. Selected compounds were diluted into the media at various concentration ranging from 0.01 uM up to 100 uM. Diluted compounds were added onto the MDA-MB-231 cells. For H460 cells, the compounds were added either alone or in presence of 3 ng/ml of TRAIL. After 72 hours cellular viability was evaluated by MTS based assays. A solution of [3-(4,5-dimethylthiazol-2-yl)-5-(3-carboxymethoxyphenyl)-2-(4-sulfophenyl)-2H-tetrazolium, inner salt; MTS] was added onto cells for a period of 1 to 4 hours. Upon incubation the amount of converted MTS was evaluated using a Tecan spectrophotometer set at 570 nm.

XIAP BIR3 = test: Pull-down assay with affinity beads, western blot; format: binding; settings: Method 33A
Experimental: Prior to the pull-down assay the compound 168-affinity-agarose beads were prepared as follows:
300 ul of avidine-agarose beads prepared as 50% slurry in buffer A were incubated with 40 ul compound 168 (2.5 mM final) for 6 hrs at 4° C. with shaking. Upon incubation the beads were washed 3 times with buffer A.
On the day of the pull-down assay, cells such as MDA-MB-231 or 293A were collected and lyzed with a buffer A containing 20 mM Tris HCl, 150 mM NaCl, 10% Glycerol 1% NP-40 and Protease inhibitor cocktail obtained from Sigma with a final protein concentration between 3 to 30 ug/ul.
For the pull-down assay, 60 ul of the compound 168-beads preparation were incubated with 300 ug cells lysate and 10 ul compound 107 (0.36 mM final) or as control with 10 ul of buffer A to get a final volume of 550 ul. The mixture was then incubated at 4 C over night with shaking. The following day, the beads were washed three times with the buffer A and the final bead pellet was re-suspended in 50 ul of 2× Leamli buffer. The samples were then centrifuged and the supernatant was collected for western blot analysis directed against XIAP of the other IAP's.
Alternatively a similar protocol was performed with AVPI-Biotin and IPVA-Biotin probes.

SKOV-3 cell line = test: Cell survival, SKOV-3 cell line; format: cell-based; settings: Homo sapiens, SK-OV-3
Experimental: as §3
Various compounds, including compounds 16, 42, 44, 45, 48, 52, 53, 75, 84 and 89, were tested in the MDA-MB-231 breast derived cell line and found to have EC50 of <5 μM. […] Also, various compounds 175, 176, 177 and 178 were tested against SKOV-3 cell line, and found to have EC50 of <5 μM.

Row | IC50 (GST-XIAP BIR3RING) [nM] | IC50 (GST-HIAP2 (cIAP-1) BIR 3) [nM] | IC50 (GST-HIAP1(cIAP-2) BIR 3) [nM] | SMILES | EC50 (MDA-MB-231 cells) [nM] | other results
1 | – | – | – | CN[C@@H](C)C(=O)N[C@H](C(=O)N1CCC[C@H]1CN(CCc1ccccc1)C(=O)[C@H](N)Cc1ccc(OC)cc1)C(C)(C)C [54 bis-HCl] | – | MTT signal in hollow fiber model [1]: reduction in MTT signal; Anti-tumor activity in combination with Taxotere (H460 cells): anti-tumor activity
2 | < 10000 | < 1000 | < 10000 | CN[C@@H](C)C(=O)N[C@H](C(=O)N1CCC[C@H]1CNCCc1ccccc1)C(C)(C)C [Compound 16] | < 5000 | IC50 [2]: < 1000 nM; IC50 [3]: > 10000 nM; IC50 [4]: > 10000 nM
3 | < 1000 | < 1000 | < 1000 | CN[C@@H](C)C(=O)N[C@H](C(=O)N1CCC[C@H]1CN(CCc1ccccc1)C(=O)[C@H](N)Cc1ccccc1)C(C)(C)C [Compound 42] | < 5000 | –
4 | < 10000 | < 1000 | < 1000 | CN[C@@H](C)C(=O)N[C@H](C(=O)N1CCC[C@H]1CN(CCc1ccccc1)C(=O)[C@@H](N)Cc1ccccc1)C(C)(C)C [Compound 44] | < 5000 | –
5 | < 1000 | < 1000 | < 1000 | CN[C@@H](C)C(=O)N[C@H](C(=O)N1CCC[C@H]1CN(CCc1ccccc1)C(=O)CNCc1ccccc1)C(C)(C)C [Compound 45] | < 5000 | –
6 | < 1000 | < 1000 | < 1000 | CN[C@@H](C)C(=O)N[C@H](C(=O)N1CCC[C@H]1CN(CCc1ccccc1)C(=O)CCCc1ccccc1)C(C)(C)C [Compound 48] | < 5000 | –
7 | < 1000 | < 1000 | < 1000 | CN[C@@H](C)C(=O)N[C@H](C(=O)N1CCC[C@H]1CN(CCc1ccccc1)C(=O)[C@@H](Cc1ccccc1)NC)C(C)(C)C [Compound 52] | < 5000 | –
8 | < 1000 | < 1000 | < 1000 | CN[C@@H](C)C(=O)N[C@H](C(=O)N1CCC[C@H]1CN(CCc1ccccc1)C(=O)[C@H](N)Cc1ccc(F)cc1)C(C)(C)C [Compound 53] | < 5000 | –
9 | – | – | – | CN[C@@H](C)C(=O)N[C@H](C(=O)N1CCC[C@H]1CN(CCc1ccccc1)C(=O)c1ccc(F)cc1)C(C)(C)C [Compound 75] | < 5000 | –
10 | – | – | – | CN[C@@H](C)C(=O)N[C@@H](CCc1ccccc1)C(=O)N1CCC[C@H]1CN(CCc1ccccc1)C(=O)[C@H](N)Cc1ccc(OC)cc1 [Compound 84] | < 5000 | –
11 | – | – | – | CN[C@@H](C)C(=O)N[C@@H](CCc1ccccc1)C(=O)N1CCC[C@H]1CN(CCc1ccccc1)C(=O)[C@H](N)Cc1ccccc1 [Compound 89] | < 5000 | –
12 | – | – | – | CN[C@@H](C)C(=O)N[C@H](C(=O)N1CCC[C@H]1CN(CCc1ccccc1)C(=O)CCCCC1SC[C@@H]2NC(=O)N[C@H]12)C(C)(C)C (some centres unmarked) [Compound 168] | – | Pull-down of XIAP BIR3 (Western-blot) (XIAP BIR3): XIAP BIR3 was pulled-down
13 | – | – | – | CN[C@@H](C)C(=O)N[C@H](C(=O)N1CCC[C@H]1CN(CCc1ccccc1)C(=O)c1ccc(C(=O)N(CCc2ccccc2)C[C@@H]2CCCN2C(=O)[C@@H](NC(=O)[C@H](C)NC)C(C)(C)C)cc1)C(C)(C)C [Compound 175] | – | EC50 (SKOV-3 cell line): < 5000 nM
14 | – | – | – | CN[C@@H](C)C(=O)N[C@H](C(=O)N1CCC[C@H]1CN(CCc1ccccc1)C(=O)CCCCCCCCC(=O)N(CCc1ccccc1)C[C@@H]1CCCN1C(=O)[C@@H](NC(=O)[C@H](C)NC)C(C)(C)C)C(C)(C)C [Compound 176] | – | EC50 (SKOV-3 cell line): < 5000 nM
15 | – | – | – | CN[C@@H](C)C(=O)N[C@H](C(=O)N1CCC[C@H]1CN(CCc1ccccc1)C(=O)CCCC(=O)N(CCc1ccccc1)C[C@@H]1CCCN1C(=O)[C@@H](NC(=O)[C@H](C)NC)C(C)(C)C)C(C)(C)C [Compound 177] | – | EC50 (SKOV-3 cell line): < 5000 nM
16 | – | – | – | CN[C@@H](C)C(=O)N[C@H](C(=O)N1CCC[C@H]1CN(CCc1ccccc1)C(=O)c1ccc(-c2ccc(C(=O)N(CCc3ccccc3)C[C@@H]3CCCN3C(=O)[C@@H](NC(=O)[C@H](C)NC)C(C)(C)C)cc2)cc1)C(C)(C)C [Compound 178] | – | EC50 (SKOV-3 cell line): < 5000 nM
